Laboratory results published in paper PMC5116089, “Sulfheme formation during homocysteine S-oxygenation by catalase in cancers and neurodegenerative diseases” (Nature Communications, 2016).

Columns and labels:
Bovine liver catalase [1] = molecular target: T1, Bovine liver catalase (Bos taurus, UniProt P00432); test: Time course of catalase inactivation by HCys (activity test); type: biochemical; conditions: CAT + 2 mM HCys, 1 mM DTPA, pH 7.4, with the additive named (DMPO 100 mM, dimedone 4 mM, SOD 40 U); n=2±s.d.
T1 construct: Bovine liver catalase was also purchased from Sigma-Aldrich; purchased Sigma-Aldrich; host or cells: bovine liver
T1 sequence (P00432 2-527 limits assumed): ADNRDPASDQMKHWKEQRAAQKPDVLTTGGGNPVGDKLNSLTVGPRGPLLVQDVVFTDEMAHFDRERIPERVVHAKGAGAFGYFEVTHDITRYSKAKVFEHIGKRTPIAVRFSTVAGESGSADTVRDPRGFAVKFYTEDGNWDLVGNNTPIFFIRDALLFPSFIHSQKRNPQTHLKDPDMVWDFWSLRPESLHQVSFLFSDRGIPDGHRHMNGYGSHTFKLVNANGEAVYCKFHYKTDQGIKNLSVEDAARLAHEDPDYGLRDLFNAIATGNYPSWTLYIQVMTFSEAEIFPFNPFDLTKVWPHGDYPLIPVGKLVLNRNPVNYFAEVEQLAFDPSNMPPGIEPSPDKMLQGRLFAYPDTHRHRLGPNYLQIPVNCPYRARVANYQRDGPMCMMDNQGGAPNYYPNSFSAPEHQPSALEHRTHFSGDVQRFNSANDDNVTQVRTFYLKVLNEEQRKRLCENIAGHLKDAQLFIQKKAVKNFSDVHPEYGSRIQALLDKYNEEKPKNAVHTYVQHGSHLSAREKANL
Method: (§1) CAT activity was measured on an Uvikon 941 spectrophotometer equipped with a temperature controlled water bath (±1 °C) by following the disappearance of H2O2 at 240 nm over 30–120 s at 25 °C. Catalase activity was calculated based on the rate of decomposition of hydrogen peroxide, which is proportional to the reduction of the absorbance at 240 nm. Experiments were carried out in a 3 ml quartz cuvette containing 11.7 mM H2O2 in 50 mM KPi, pH 7.4±1 mM DTPA and the reaction was initiated by adding 0.3–0.6 pmoles of CAT. The effect of biological thiols on the activity of CAT under physiological conditions was determined from a solution of CAT (30–60 nM) preincubated at 25 °C for at least 120 min as a function thiol concentration (0–40 mM for HCys and Cys, 0–100 mM for GSH) in 50 mM KPi, pH 7.4, 1 mM DTPA. Control experiments (biological thiols alone) were also performed in parallel. In each case, 10 μl of the reaction mixture (biological thiols±CAT) was added to the cuvette containing the H2O2 solution to initiate the reaction. Similarly, the effect of biological thiols on the activity of CAT under pathological conditions was determined from a solution of CAT (30–60 nM) containing a 2.124±0.386 molar excess of iron that was preincubated with various concentrations of thiols (0–1 mM) for at least 120 min at 25 °C in 50 mM KP at pH 7.4. The relative half inhibitory concentration (IC50) values were obtained by plotting the relative activity of CAT (A, in per cent) as a function of the concentration of thiol-compounds (RSH) and by fitting the data with the following four parameter logistic equation: A=Amin+(Amax−Amin)/(1+([RSH]/IC50)^n), where Amax is the maximal activity of CAT (constrained at 100%), Amin is the minimum activity achieved at saturating concentration of RSH and n is the Hillslope that characterizes the slope of the curve at its midpoint. The inactivation rate (kinact, min^−1) was extracted from the time course of the inactivation of CAT bioactivity using a fixed concentration of HCys. Accordingly, a solution of CAT (3.5–5 μM) was incubated with 2 mM L-HCys in 50 mM KPi, pH 7.4, 1 mM DTPA. Aliquots (10 μl) were taken at intervals (0–480 min), diluted 1:50 in 50 mM KPi, pH 7.4, 1 mM DTPA and assayed for CAT activity as described above. […] The effect of NaSH on the consumption of H2O2 in cell lysates was determined from a solution of cell lysates (0.5–3 mg ml^−1) incubated on ice with various concentrations of NaSH (0–200 μM). […]

Bovine liver catalase [2] = molecular target: T1, Bovine liver catalase; test: Comparative kinetic studies by ultraviolet-visible spectroscopy (compound II and Fe(II) sulfonium formation); type: biochemical; conditions: CAT + 2 mM HCys, 1 mM DTPA, pH 7.4, with the additive named (dimedone 4 mM, BCN 0.1 mM, SOD 40 U)
Method: Ultraviolet–visible spectra were recorded on a Cary 300 Scan or an Uvikon 941 spectrophotometer equipped with a temperature equilibrating water bath (±1 °C). Spectral changes over time were recorded when CAT was incubated with L-HCys (0.2 or 2 mM), L-Cys (0.2, 2 or 9 mM) or GSH (1 or 30 mM) at 25 °C in a 1 ml quartz cuvette containing a solution of CAT (2.7–5.9 μM) in 50 mM KPi, pH 7.4±1 mM DTPA. Due to half-site reactivity of biological thiols with CAT, the data were recorded versus a blank containing half the concentrations of CAT used in the experiments, that is, a solution of 1.35–2.95 μM CAT in 50 mM KPi at pH 7.4±1 mM DTPA. Reactions were initiated by addition of the thiol-containing compounds. Comparative kinetic studies were performed by incubating CAT ([…] in the experiment, 1.35–1.5 μM in the blank) with 2 mM L-HCys in 50 mM KPi, pH 7.4, 1 mM DTPA with or without […], 5,5-dimethyl-1,3-cyclohexanedione (dimedone, 4 mM), BCN (0.1 mM) or SOD, 40 U). All the experiments were performed at least in duplicate.

HCT-15 cells = test: H2O2 consumption in cell lysates as a function of NaSH concentration; type: biochemical, human; conditions: HCT-15 cell lysate; read-out: relative IC50 (rate of H2O2 consumption)
Method: as §1

kinact (Bovine liver catalase [1]) [s⁻¹]	Ultraviolet–visible spectroscopy kobs(6) (CAT–Fe(IV)=O formation) (Bovine liver catalase [2]) [min⁻¹]	SMILES	IC50 (HCT-15 cells) [µM]
0.000483	0.026 ± 0.003	NC(CCS)C(=O)O (stereo not drawn) [HCys, homocysteine]	
		[Na+].[SH-] [NaSH]	5.8 ± 1.8
